The results in this text go back to ChEMBL document CHEMBL1938273, “Design, synthesis and in vitro evaluation of novel bivalent S-adenosylmethionine analogues” (Bioorg Med Chem Lett, 2012).

pKd: −log10 of the molar value.

Usually pKd stands for −log10 of the Kd, conventionally taken in molar units.

Test [1] has as its target T1, Met repressor (Escherichia coli) (UniProt C3SIU2).
T1 sequence (whole entry): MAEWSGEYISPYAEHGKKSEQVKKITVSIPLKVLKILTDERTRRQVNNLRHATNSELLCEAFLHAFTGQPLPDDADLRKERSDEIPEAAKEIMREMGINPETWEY
The test can be described thus: Binding affinity to Escherichia coli metJ assessed as protein dimer-DNA complex formation using F-metC operator DNA by fluorescence anisotropy relative to 5'-[{(3''S)-4''-Benzylamino-3''-amino-4''-oxobutyl}dimethylamino]-5'-deoxyadenosine iodide ditrifluoroacetic acid salt. A general note: In fluorescence polarisation assays a small probe gives low polarisation when free and higher when bound to something large.

Test [2] concerns the target T1, Met repressor (Escherichia coli). The experiment in a line: Binding affinity to Escherichia coli metJ assessed as protein dimer-DNA complex formation using F-metC operator DNA by fluorescence anisotropy relative to 4-((((2R,3S,4R,5R)-5-(6-amino-9H-purin-9-yl)-3,4-dihydroxy-tetrahydrofuran-2-yl)methyl)(methyl)amino)-N-propylbutanamide.
The target of test [3] is T2, Met repressor (Escherichia coli, UniProt C3SIU2).
T2 sequence (C3SIU2 whole entry): T1 sequence (whole entry)
The test can be described thus: Binding affinity to Escherichia coli metJ in presence of operator DNA complex by filter binding study.

Regarding `C[N+](C)(CC[C@H](N)C(=O)NCc1cccc(CNC(=O)[C@@H](N)CC[N+](C)(C)C[C@H]2O[C@@H](n3cnc4c(N)ncnc43)[C@H](O)[C@@H]2O)c1)C[C@H]1O[C@@H](n2cnc3c(N)ncnc32)[C@H](O)[C@@H]1O` (mixture of isomers), the fold change (FC) in test [1] is 3.6.
On to `C[N+](C)(CC[C@H](N)C(=O)NCc1ccc(CNC(=O)[C@@H](N)CC[N+](C)(C)C[C@H]2O[C@@H](n3cnc4c(N)ncnc43)[C@H](O)[C@@H]2O)cc1)C[C@H]1O[C@@H](n2cnc3c(N)ncnc32)[C@H](O)[C@@H]1O` (mixture of isomers), for which the fold change (FC) in test [1] is 2.4.
Consider `CN(CCCC(=O)NCCCCn1nnc2c1CCCCCC2OCCNC(=O)CCCN(C)C[C@H]1O[C@@H](n2cnc3c(N)ncnc32)[C@H](O)[C@@H]1O)C[C@H]1O[C@@H](n2cnc3c(N)ncnc32)[C@H](O)[C@@H]1O` (stereo partly specified), for which, in test [2], the fold change (FC) turned out to be 13.
For `CN(CCCC(=O)NCCOC1CCCCCc2c1nnn2CCNC(=O)CCCN(C)C[C@H]1O[C@@H](n2cnc3c(N)ncnc32)[C@H](O)[C@@H]1O)C[C@H]1O[C@@H](n2cnc3c(N)ncnc32)[C@H](O)[C@@H]1O` (mixture of isomers), the fold change (FC) in test [2] turned out to be 9.1.
Same read-out and setting: under `CN(CCCC(=O)NCCCCCCNC(=O)CCCN(C)C[C@H]1O[C@@H](n2cnc3c(N)ncnc32)[C@H](O)[C@@H]1O)C[C@H]1O[C@@H](n2cnc3c(N)ncnc32)[C@H](O)[C@@H]1O` stands 21.
Consider `C[S+](CC[C@H](N)C(=O)[O-])C[C@H]1O[C@@H](n2cnc3c(N)ncnc32)[C@H](O)[C@@H]1O` (stereo partly specified) [ADEMETIONINE], for which, in test [3], the pKd was 8.40.
